In the NIST ThermoML archive (doi:10.1021/je3009599):

Conditions: Liquid

CCCC(=O)OCC [ethyl butanoate]
Conditions	vapor or sublimation pressure [kPa]
348.97 K	22.5
351.83 K	25
354.39 K	27.5
356.76 K	30.03
359 K	32.51
361.08 K	35.02
363.04 K	37.52
364.86 K	40.04
366.66 K	42.51
368.24 K	45.03
369.87 K	47.51
371.44 K	50.01
372.86 K	52.51
374.31 K	55.03
375.67 K	57.52
376.95 K	60
379.48 K	65.03
380.68 K	67.53
381.82 K	70
382.96 K	72.52
384.07 K	75.01
385.13 K	77.51
386.19 K	79.99
387.22 K	82.52
388.21 K	85.02
389.17 K	87.54
390.12 K	89.98
391.06 K	92.53
391.95 K	94.92
392.83 K	97.45
393.71 K	100.01
394.13 K	101.31

CCCC(C)O (stereo not given) [pentan-2-ol]
Conditions	vapor or sublimation pressure [kPa]
354.47 K	22.55
356.6 K	25.05
358.86 K	27.47
360.81 K	30.03
362.76 K	32.55
364.38 K	35.08
366 K	37.56
367.49 K	40.03
369.03 K	42.51
370.52 K	45.07
371.77 K	47.54
373.05 K	50.02
374.33 K	52.58
375.51 K	55.03
376.68 K	57.48
377.81 K	60.03
378.95 K	62.45
379.97 K	65.05
381.01 K	67.58
381.96 K	70.03
382.9 K	72.56
383.88 K	75.05
384.79 K	77.59
385.64 K	80.03
386.56 K	82.58
387.35 K	85.01
388.19 K	87.55
389 K	90.09
389.76 K	92.52
390.55 K	95.02
391.31 K	97.55
392.07 K	100.03
392.26 K	101.38
